15 compounds from ChEMBL document CHEMBL3991601, “The target landscape of clinical kinase drugs” (Science, 2017) can be followed below.

Active and inactive are the calls of the source. Cut-off read from the data, not from the text of the source, for most assays here: actives have a measured Kd and inactives only a lower limit.

The target in assay [1] is Atypical kinase COQ8A, mitochondrial (Homo sapiens, UniProt Q8NI60).
Assay [2] addresses Serine/threonine-protein kinase MRCK beta (Homo sapiens, UniProt Q9Y5S2).
For assay [3], the target named is T1, Serine/threonine-protein kinase LATS1 (Homo sapiens, UniProt O95835).
T1 sequence (O95835 whole entry): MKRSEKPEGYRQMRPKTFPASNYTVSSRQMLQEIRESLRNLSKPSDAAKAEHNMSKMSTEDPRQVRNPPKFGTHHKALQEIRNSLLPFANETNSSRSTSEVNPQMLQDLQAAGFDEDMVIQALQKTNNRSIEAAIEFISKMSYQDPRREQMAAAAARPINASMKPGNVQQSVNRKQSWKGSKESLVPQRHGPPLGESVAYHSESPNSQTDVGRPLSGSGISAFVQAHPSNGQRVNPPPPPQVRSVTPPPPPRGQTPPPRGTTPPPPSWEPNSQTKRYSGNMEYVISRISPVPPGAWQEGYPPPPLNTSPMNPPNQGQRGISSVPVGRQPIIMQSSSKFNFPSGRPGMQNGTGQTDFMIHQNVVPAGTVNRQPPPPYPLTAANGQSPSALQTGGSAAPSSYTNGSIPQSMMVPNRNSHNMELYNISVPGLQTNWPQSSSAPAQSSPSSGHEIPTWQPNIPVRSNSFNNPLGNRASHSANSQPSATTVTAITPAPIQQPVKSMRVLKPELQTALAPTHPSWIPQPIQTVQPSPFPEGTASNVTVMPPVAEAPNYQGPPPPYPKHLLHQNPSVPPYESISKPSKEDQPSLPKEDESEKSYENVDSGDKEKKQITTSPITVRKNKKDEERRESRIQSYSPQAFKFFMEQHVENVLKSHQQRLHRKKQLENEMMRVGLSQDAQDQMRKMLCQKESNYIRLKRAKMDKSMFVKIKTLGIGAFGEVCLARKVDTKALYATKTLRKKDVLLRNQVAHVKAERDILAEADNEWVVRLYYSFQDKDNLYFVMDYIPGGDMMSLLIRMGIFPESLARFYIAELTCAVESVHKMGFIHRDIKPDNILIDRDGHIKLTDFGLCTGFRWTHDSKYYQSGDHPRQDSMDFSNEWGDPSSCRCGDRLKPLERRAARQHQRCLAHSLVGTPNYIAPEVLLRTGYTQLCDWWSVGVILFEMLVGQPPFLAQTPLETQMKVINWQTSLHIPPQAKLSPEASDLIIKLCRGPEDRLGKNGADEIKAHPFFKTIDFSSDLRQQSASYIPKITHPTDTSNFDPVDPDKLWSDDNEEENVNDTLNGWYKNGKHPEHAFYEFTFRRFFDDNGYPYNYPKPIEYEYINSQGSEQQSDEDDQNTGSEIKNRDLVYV

The target in assay [4] is Dual specificity mitogen-activated protein kinase kinase 1 (Homo sapiens, UniProt Q02750).
In assay [5] the target is Maternal embryonic leucine zipper kinase (Homo sapiens, UniProt Q14680).
Assay [6] deals with T2, Serine/threonine-protein kinase Nek3 (Homo sapiens, UniProt P51956).
T2 sequence (P51956 whole entry): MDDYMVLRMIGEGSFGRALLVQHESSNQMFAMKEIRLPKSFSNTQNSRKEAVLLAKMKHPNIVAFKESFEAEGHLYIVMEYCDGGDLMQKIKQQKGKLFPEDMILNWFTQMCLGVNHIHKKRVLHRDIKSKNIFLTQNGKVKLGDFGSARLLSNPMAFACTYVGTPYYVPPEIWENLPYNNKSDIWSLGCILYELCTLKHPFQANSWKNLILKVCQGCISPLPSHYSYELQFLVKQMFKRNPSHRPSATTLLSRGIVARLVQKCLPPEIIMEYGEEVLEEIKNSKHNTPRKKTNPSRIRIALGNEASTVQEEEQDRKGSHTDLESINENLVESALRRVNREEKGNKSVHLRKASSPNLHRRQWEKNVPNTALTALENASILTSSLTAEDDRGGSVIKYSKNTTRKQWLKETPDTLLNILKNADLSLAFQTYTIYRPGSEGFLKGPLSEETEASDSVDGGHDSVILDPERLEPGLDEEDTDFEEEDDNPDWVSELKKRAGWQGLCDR

For assay [7], the target named is Ribosomal protein S6 kinase alpha-4 (Homo sapiens, UniProt O75676).
The target of assay [8] is T3, ATP-dependent RNA helicase DDX42 (Homo sapiens, UniProt Q86XP3).
T3 sequence (Q86XP3 whole entry): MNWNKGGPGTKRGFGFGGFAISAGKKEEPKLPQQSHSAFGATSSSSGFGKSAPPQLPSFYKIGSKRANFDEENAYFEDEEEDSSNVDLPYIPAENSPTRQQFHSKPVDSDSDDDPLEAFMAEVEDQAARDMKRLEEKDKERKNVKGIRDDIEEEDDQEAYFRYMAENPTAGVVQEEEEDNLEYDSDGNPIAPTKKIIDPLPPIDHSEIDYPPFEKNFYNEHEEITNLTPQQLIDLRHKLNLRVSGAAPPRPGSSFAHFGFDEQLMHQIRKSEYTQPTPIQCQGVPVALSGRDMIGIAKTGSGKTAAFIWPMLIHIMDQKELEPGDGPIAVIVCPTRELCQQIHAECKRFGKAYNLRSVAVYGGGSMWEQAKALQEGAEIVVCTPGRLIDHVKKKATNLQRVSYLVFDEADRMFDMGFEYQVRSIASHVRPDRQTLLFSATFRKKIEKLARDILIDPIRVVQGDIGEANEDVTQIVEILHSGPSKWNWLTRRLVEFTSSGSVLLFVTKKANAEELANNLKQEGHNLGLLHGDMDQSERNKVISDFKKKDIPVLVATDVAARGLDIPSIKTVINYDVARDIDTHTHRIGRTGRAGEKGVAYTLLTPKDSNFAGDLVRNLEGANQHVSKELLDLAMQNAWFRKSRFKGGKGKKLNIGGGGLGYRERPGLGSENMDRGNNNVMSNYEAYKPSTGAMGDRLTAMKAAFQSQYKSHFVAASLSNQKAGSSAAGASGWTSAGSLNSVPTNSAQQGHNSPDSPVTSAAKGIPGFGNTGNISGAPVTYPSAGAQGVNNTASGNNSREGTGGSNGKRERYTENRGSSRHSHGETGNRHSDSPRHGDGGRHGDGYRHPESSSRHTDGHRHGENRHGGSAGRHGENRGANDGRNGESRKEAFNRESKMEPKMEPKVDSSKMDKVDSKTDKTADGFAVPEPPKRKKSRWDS
Note: in the data inactive means no Kd found up to 30 µM.

Sequence of Ribosomal protein S6 kinase alpha-4 (O75676 whole entry): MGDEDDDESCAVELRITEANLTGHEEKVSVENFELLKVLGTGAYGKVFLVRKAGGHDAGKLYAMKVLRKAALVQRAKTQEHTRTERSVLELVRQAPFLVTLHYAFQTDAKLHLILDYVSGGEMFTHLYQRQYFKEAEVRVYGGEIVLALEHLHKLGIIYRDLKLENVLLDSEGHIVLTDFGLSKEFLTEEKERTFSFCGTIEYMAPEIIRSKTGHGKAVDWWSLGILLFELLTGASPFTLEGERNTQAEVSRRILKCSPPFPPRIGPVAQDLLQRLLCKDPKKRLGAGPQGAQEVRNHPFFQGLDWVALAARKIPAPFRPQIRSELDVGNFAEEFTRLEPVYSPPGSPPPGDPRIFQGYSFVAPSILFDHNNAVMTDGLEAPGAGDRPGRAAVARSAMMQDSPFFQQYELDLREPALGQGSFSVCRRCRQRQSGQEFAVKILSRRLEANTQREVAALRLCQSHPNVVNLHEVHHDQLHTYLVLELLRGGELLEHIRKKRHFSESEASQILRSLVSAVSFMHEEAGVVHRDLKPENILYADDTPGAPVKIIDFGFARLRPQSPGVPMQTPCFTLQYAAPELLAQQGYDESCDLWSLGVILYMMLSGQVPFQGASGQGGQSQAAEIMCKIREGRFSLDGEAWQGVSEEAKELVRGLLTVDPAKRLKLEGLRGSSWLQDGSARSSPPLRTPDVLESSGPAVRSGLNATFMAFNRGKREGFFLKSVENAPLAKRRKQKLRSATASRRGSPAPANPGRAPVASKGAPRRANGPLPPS
Sequence of Serine/threonine-protein kinase MRCK beta (Q9Y5S2 whole entry): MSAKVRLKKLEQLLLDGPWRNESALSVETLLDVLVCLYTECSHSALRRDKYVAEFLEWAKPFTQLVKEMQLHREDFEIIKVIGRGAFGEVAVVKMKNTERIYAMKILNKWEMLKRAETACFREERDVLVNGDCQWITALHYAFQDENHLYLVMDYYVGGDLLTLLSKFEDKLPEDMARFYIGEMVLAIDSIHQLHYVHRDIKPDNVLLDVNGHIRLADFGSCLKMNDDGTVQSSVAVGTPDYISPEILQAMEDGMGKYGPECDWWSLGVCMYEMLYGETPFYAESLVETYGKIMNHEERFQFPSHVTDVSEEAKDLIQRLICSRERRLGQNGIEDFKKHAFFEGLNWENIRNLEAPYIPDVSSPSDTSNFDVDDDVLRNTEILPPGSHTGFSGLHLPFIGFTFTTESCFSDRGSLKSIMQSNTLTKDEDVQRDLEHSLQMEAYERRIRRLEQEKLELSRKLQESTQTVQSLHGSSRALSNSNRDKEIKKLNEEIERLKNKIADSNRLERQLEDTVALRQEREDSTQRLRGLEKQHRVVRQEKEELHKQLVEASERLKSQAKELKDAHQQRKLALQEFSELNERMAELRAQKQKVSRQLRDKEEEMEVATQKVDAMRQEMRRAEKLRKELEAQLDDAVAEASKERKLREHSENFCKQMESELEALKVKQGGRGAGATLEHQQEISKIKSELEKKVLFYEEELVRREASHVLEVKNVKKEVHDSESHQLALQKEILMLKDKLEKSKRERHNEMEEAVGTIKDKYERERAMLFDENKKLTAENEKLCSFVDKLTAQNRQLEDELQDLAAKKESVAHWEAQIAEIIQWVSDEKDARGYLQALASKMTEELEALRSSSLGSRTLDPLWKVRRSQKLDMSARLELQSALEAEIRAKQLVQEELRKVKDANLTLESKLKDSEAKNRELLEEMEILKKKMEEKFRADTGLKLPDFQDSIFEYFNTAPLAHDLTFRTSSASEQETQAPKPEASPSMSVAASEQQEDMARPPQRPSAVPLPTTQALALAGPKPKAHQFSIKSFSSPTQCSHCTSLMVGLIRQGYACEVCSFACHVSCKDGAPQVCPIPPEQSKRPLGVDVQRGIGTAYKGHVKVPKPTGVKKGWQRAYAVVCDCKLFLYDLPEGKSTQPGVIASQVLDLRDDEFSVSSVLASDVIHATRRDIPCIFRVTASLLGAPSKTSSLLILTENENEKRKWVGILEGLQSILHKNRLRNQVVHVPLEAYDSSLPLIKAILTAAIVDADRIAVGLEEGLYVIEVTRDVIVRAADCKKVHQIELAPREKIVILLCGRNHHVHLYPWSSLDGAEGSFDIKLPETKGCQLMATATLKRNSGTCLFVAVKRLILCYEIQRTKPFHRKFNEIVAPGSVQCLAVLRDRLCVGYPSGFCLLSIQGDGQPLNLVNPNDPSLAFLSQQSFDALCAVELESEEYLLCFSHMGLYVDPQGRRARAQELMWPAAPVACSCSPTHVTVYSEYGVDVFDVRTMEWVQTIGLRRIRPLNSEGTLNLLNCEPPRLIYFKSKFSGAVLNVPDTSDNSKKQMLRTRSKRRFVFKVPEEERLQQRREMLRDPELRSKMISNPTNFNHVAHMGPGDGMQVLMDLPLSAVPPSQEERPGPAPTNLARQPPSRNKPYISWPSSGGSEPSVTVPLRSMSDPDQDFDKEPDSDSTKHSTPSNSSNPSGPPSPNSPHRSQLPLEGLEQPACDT
Sequence of Atypical kinase COQ8A, mitochondrial (Q8NI60 whole entry): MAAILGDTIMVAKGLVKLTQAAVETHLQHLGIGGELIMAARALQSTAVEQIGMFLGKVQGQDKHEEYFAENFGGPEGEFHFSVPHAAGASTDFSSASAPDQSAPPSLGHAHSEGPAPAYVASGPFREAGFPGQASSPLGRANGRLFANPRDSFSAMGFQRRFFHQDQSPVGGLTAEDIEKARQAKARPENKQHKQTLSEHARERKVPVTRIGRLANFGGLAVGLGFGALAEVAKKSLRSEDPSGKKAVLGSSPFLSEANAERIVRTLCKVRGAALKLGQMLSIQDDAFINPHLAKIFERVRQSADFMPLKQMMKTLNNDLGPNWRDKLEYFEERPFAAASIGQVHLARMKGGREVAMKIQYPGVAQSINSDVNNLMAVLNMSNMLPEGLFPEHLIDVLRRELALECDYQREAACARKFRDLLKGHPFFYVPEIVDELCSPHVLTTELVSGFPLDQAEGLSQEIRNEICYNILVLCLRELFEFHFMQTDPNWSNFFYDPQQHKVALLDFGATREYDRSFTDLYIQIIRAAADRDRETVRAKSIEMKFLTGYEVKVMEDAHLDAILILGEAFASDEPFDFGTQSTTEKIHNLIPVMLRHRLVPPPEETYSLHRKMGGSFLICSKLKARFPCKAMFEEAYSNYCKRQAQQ
Sequence of Dual specificity mitogen-activated protein kinase kinase 1 (Q02750 whole entry): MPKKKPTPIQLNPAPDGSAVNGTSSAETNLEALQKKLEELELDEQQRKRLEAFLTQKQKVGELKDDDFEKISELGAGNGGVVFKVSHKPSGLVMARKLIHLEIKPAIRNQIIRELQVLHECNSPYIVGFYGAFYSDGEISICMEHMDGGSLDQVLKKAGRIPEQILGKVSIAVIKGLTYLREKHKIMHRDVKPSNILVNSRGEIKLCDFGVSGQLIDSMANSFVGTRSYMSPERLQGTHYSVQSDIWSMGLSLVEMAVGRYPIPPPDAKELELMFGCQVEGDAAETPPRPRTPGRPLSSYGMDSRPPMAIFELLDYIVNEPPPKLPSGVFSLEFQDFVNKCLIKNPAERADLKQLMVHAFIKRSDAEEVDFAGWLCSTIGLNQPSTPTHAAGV
Sequence of Maternal embryonic leucine zipper kinase (Q14680 whole entry): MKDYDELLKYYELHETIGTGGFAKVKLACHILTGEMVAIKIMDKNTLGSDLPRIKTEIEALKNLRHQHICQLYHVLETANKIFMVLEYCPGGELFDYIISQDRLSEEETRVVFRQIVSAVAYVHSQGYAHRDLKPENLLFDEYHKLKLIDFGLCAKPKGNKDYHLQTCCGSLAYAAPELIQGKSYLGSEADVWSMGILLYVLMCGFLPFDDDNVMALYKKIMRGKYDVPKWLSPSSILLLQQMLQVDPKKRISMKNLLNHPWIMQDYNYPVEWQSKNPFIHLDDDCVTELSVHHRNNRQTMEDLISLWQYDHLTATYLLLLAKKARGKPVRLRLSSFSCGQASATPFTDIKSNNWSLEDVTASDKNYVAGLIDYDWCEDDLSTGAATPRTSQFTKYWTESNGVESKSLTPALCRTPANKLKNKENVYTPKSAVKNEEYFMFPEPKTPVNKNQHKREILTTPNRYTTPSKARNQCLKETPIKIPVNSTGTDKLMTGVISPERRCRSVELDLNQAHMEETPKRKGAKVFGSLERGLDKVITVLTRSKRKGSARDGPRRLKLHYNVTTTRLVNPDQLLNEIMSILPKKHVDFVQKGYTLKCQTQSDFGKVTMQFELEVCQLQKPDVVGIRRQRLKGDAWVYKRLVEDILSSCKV

Consider `C[C@@H](Nc1cc(F)cc(F)c1)c1cc(C(=O)N(C)C)cc2c(=O)cc(N3CCOCC3)oc12` [AZD-8186], for which the Kd in assay [1], in assay [2], in assay [3], in assay [4], in assay [5] and in assay [6] was > 30 µM (inactive) each time. Also, in assay [7], the Kd is > 30 µM (inactive).
With `COc1cc(OC)c(/C=C/S(=O)(=O)Cc2ccc(OC)c(NCC(=O)O)c2)c(OC)c1` [RIGOSERTIB], the Kd in assay [1], in assay [2], in assay [3], in assay [4], in assay [5] and in assay [6] was > 30 µM (inactive) in each case. Further, the Kd in assay [7] is > 30 µM (inactive).
Take `Cc1ccc(S(=O)(=O)Nc2nc3ccccc3nc2Nc2ccc3nsnc3c2)cc1`: the Kd in assay [1], in assay [2], in assay [3], in assay [4], in assay [5] and in assay [6] was > 30 µM (inactive) in each case. Besides, the Kd in assay [7] is > 30 µM (inactive).
Take `O=C(Nc1cccc(Cl)c1)Nc1ncc(CCNc2ncnc3ccsc23)s1` [SNS-314]: the Kd in assay [1], in assay [2], in assay [8], in assay [3], in assay [6] and in assay [7] was > 30 µM (inactive) each time.
In the case of `Nc1nc(N)c2nc(-c3cccc(O)c3)c(-c3cccc(O)c3)nc2n1` [TG100-115], the Kd in assay [8] is > 30 µM (inactive).
For `CNS(=O)(=O)Nc1nccc(Cc2c(C)c3ccc(Oc4ncccn4)cc3oc2=O)c1F` [AVUTOMETINIB], the Kd in assay [1], in assay [2], in assay [8], in assay [3], in assay [5] and in assay [6] was > 30 µM (inactive) throughout. Moreover, the Kd in assay [7] was > 30 µM (inactive).
In the case of `CC(=O)Nc1cccc(-n2c(=O)n(C3CC3)c(=O)c3c(Nc4ccc(I)cc4F)n(C)c(=O)c(C)c32)c1` [TRAMETINIB], the Kd in assay [1], in assay [2], in assay [8], in assay [3], in assay [5] and in assay [6] was > 30 µM (inactive) throughout. In addition, the Kd in assay [7] is > 30 µM (inactive).
On to `CCc1cnn2c(NCc3ccc[n+]([O-])c3)cc(N3CCCC[C@H]3CCO)nc12` [DINACICLIB], for which the Kd in assay [1], in assay [2], in assay [8], in assay [3], in assay [5] and in assay [6] was > 30 µM (inactive) in each case. In assay [7], the Kd is > 30 µM (inactive).
Turning to `OCCn1cc(-c2cnc3nnn(Cc4ccc5ncccc5c4)c3n2)cn1` [PF-04217903], the Kd in assay [1], in assay [2], in assay [8], in assay [3], in assay [5] and in assay [6] was > 30 µM (inactive) each time. Also, the Kd in assay [7] was > 30 µM (inactive).
Consider `COC(=O)[C@@]1(O)C[C@H]2O[C@]1(C)n1c3ccccc3c3c4c(c5c6ccccc6n2c5c31)C(=O)NC4` [K-252A], for which the Kd in assay [1] is > 30 µM (inactive); in assay [2], > 30 µM (inactive); in assay [8], > 30 µM (inactive); in assay [3], 0.067 µM (active); in assay [5] it was 0.083 µM (active); in assay [6] it was > 30 µM (inactive). For the same compound, in assay [7], the Kd was 0.432 µM (active).
Turning to `COc1cc(CCc2cc(NC(=O)c3ccc(N4C[C@@H](C)N[C@@H](C)C4)cc3)n[nH]2)cc(OC)c1` [AZD-4547], the Kd in assay [1], in assay [2], in assay [3], in assay [4], in assay [5] and in assay [6] was > 30 µM (inactive) throughout. For the same compound, in assay [7], the Kd was > 30 µM (inactive).
Consider `C[C@@H]1CN(Cc2ccc(F)cc2)[C@@H](C)CN1C(=O)c1cc2c(C(=O)C(=O)N(C)C)cn(C)c2cc1Cl` [TALMAPIMOD], for which the Kd in assay [1], in assay [2], in assay [3], in assay [4], in assay [5] and in assay [6] was > 30 µM (inactive) throughout. The Kd in assay [7] is > 30 µM (inactive).
For `CCn1c(-c2nonc2N)nc2c(C#CC(C)(C)O)ncc(OC[C@H]3CCCNC3)c21` [GSK-690693], the Kd in assay [8] was > 30 µM (inactive).
In the case of `COc1cc2nccc(Oc3ccc(NC(=O)NC4CC4)c(Cl)c3)c2cc1C(N)=O` [LENVATINIB], the Kd in assay [1], in assay [2], in assay [8], in assay [3], in assay [5] and in assay [6] was > 30 µM (inactive) in each case. Also, the Kd in assay [7] is > 30 µM (inactive).
`CC(C)Nc1cc(-c2c[nH]c(C(=O)N[C@H](CO)c3cccc(Cl)c3)c2)c(Cl)cn1` [ULIXERTINIB]: the Kd in assay [1], in assay [2], in assay [8], in assay [3], in assay [5] and in assay [6] was > 30 µM (inactive) in each case. Further, the Kd in assay [7] was > 30 µM (inactive).
